# Source: patent US20230085307A1, “PYRIDAZINONE COMPOUND AND HERBICIDE” (NISSAN CHEMICAL CORPORATION, priority 2019, published 2023)
# What was measured:
# velvetleaf [1] = assay: Test Example 5: herbicidal effect by foliage application, plastic box (Table 20, symbol M); format: in vivo, velvetleaf (Abutilon theophrasti); settings: foliage application, three weeks after application
# Method in brief: (§1)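 Plants were sown into sterilized diluvial soil under about 1.5 cm cover and kept in a greenhouse at 25° C. to 30° C. Fourteen days on, foliage received an even spray of the diluted emulsion. Herbicidal or crop effect was judged three weeks afterwards.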
# green foxtail [2] = assay: Test Example 4: herbicidal effect by soil treatment (Table 19, symbol G); format: in vivo, green foxtail (Setaria viridis)
# Method in brief: (§2)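 In this soil treatment, the formulated compound reached the seeds only through the soil: seeds were buried about 1.5 cm deep in sterilized diluvial soil, then the diluted emulsion was sprayed over the surface. After three weeks at 25° C. to 30° C. in a greenhouse, effects were graded on criteria from an earlier test.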
# false cleavers = assay: Test Example 4: herbicidal effect by soil treatment (Table 19, symbol Q); format: in vivo, false cleavers (Galium spurium)
# Method in brief: as §2
# late watergrass [3] = assay: Test Example 1: herbicidal activity, application before weed generation under submerged conditions (Table 16, symbol A); format: in vivo, late watergrass (Echinochloa oryzicola)
# Method in brief: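 Emulsion formulation, water-diluted to set dose, was put onto the flooded surface (4 cm depth, alluvial soil) the same day weeds were sown and 2.5-leaf rice transplanted. After 3 weeks at 25-30 °C under glass, each species was rated 0 (≤5% kill) to 5 (≥90% kill).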
# windgrass [4] = assay: Test Example 5: herbicidal effect by foliage application, plastic box (Table 20, symbol L); format: in vivo, windgrass (Apera spica-venti); settings: foliage application, three weeks after application
# Method in brief: as §1
# windgrass [5] = assay: Test Example 4: herbicidal effect by soil treatment (Table 19, symbol L); format: in vivo, windgrass (Apera spica-venti)
# Method in brief: as §2
# late watergrass [6] = assay: Test Example 2: herbicidal activity, application during weed generation under submerged conditions (Table 17, symbol A); format: in vivo, late watergrass (Echinochloa oryzicola); settings: application during weed generation, submerged conditions
# Method in brief: (§3)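 Effect on each weed is rated three weeks post-treatment, using the same scoring criteria as the preceding test. Plants grow from mixed-sown seed in flooded alluvial soil (4 cm water) at 25° C. to 30° C., and are treated at one to two leaves with diluted emulsion dropped onto the water.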
# Chinese sprangletop = assay: Test Example 3: herbicidal effect by foliage application, Wagner pot (Table 18, symbol D); format: in vivo, chinese sprangletop (Leptochloa chinensis)
# Method in brief: (§4)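 Plants were sown in alluvial soil held under 0.1–0.5 cm standing water and grown 14 days in a greenhouse at 25–30 °C. An emulsifiable formulation, water-diluted to the set dose, was then sprayed onto the foliage, and effects were scored three weeks later using previously defined criteria.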
# redroot pigweed [7] = assay: Test Example 4: herbicidal effect by soil treatment (Table 19, symbol N); format: in vivo, redroot pigweed (Amaranthus retroflexus)
# Method in brief: as §2
# green foxtail [8] = assay: Test Example 5: herbicidal effect by foliage application, plastic box (Table 20, symbol G); format: in vivo, green foxtail (Setaria viridis); settings: foliage application, three weeks after application
# Method in brief: as §1
# barnyard grass [9] = assay: Test Example 5: herbicidal effect by foliage application, plastic box (Table 20, symbol H); format: in vivo, barnyard grass (Echinochloa crus-galli); settings: foliage application, three weeks after application
# Method in brief: as §1
# redroot pigweed [10] = assay: Test Example 5: herbicidal effect by foliage application, plastic box (Table 20, symbol N); format: in vivo, redroot pigweed (Amaranthus retroflexus); settings: foliage application, three weeks after application
# Method in brief: as §1
# lambsquarters = assay: Test Example 5: herbicidal effect by foliage application, plastic box (Table 20, symbol O); format: in vivo, lambsquarters (Chenopodium album); settings: foliage application, three weeks after application
# Method in brief: as §1
# velvetleaf [11] = assay: Test Example 4: herbicidal effect by soil treatment (Table 19, symbol M); format: in vivo, velvetleaf (Abutilon theophrasti)
# Method in brief: as §2
# oval-leafed pondweed = assay: Test Example 2: herbicidal activity, application during weed generation under submerged conditions (Table 17, symbol C); format: in vivo, oval-leafed pondweed (Monochoria vaginalis); settings: application during weed generation, submerged conditions
# Method in brief: as §3
# barnyard grass [12] = assay: Test Example 3: herbicidal effect by foliage application, Wagner pot (Table 18, symbol H); format: in vivo, barnyard grass (Echinochloa crus-galli)
# Method in brief: as §4
# wild oat = assay: Test Example 5: herbicidal effect by foliage application, plastic box (Table 20, symbol I); format: in vivo, wild oat (Avena fatua); settings: foliage application, three weeks after application
# Method in brief: as §1
# [13] = amount of applied herbicide 80 g/ha
# [14] = amount of applied herbicide 320 g/ha
SMILES,"M: velvetleaf, herbicidal effect grade (velvetleaf [1]; 320 g/ha)","G: green foxtail, herbicidal effect grade (green foxtail [2]; [14])","Q: false cleavers, herbicidal effect grade (false cleavers; [14])","Herbicidal effect, A: late watergrass (late watergrass [3]; [14])","L: windgrass, herbicidal effect grade (windgrass [4]; 320 g/ha)","L: windgrass, herbicidal effect grade (windgrass [5]; [14])","herbicidal effect rating, A: late watergrass (late watergrass [6]; AAH 320 g/ha)",herbicidal effect on Chinese sprangletop (D) (Chinese sprangletop; 320 g/ha),"N: redroot pigweed, herbicidal effect grade (redroot pigweed [7]; [14])","G: green foxtail, herbicidal effect grade (green foxtail [8]; 320 g/ha)","H: barnyard grass, herbicidal effect grade (barnyard grass [9]; 320 g/ha)","N: redroot pigweed, herbicidal effect grade (redroot pigweed [10]; 320 g/ha)","O: lambsquarters, herbicidal effect grade (lambsquarters; 320 g/ha)","M: velvetleaf, herbicidal effect grade (velvetleaf [11]; [14])","herbicidal effect rating, C: oval-leafed pondweed (oval-leafed pondweed; AAH 320 g/ha)",herbicidal effect on barnyard grass (H) (barnyard grass [12]; 320 g/ha),"I: wild oat, herbicidal effect grade (wild oat; 320 g/ha)",also measured
CCOc1cc(F)ccc1-c1sc2cc(OC)ccc2c1-c1c(O)c(C)nn(C)c1=O [3-078],–,–,–,–,–,–,–,–,–,–,–,–,–,–,–,–,–,"M: velvetleaf, herbicidal effect grade (velvetleaf [1]; 80 g/ha): 5 (Herbicidal rate of 90% or more (almost completely withered)); G: green foxtail, herbicidal effect grade (green foxtail [2]; [13]): 0 (Herbicidal rate of 5% or less (almost no effect)); Q: false cleavers, herbicidal effect grade (false cleavers; [13]): 5 (Herbicidal rate of 90% or more (almost completely withered)); Herbicidal effect, A: late watergrass (late watergrass [3]; [13]): 5 (Herbicidal rate of 90% or more (almost completely withered)); L: windgrass, herbicidal effect grade (windgrass [4]; 80 g/ha): 5 (Herbicidal rate of 90% or more (almost completely withered)); L: windgrass, herbicidal effect grade (windgrass [5]; [13]): 0 (Herbicidal rate of 5% or less (almost no effect)); herbicidal effect rating, A: late watergrass (late watergrass [6]; AAH 80 g/ha): 1 (Herbicidal rate of 5% or more and less than 20%); herbicidal effect on Chinese sprangletop (D) (Chinese sprangletop; 80 g/ha): 3 (Herbicidal rate of 40% or more and less than 70%); N: redroot pigweed, herbicidal effect grade (redroot pigweed [7]; [13]): 3 (Herbicidal rate of 40% or more and less than 70%); G: green foxtail, herbicidal effect grade (green foxtail [8]; 80 g/ha): 4 (Herbicidal rate of 70% or more and less than 90%); H: barnyard grass, herbicidal effect grade (barnyard grass [9]; 80 g/ha): 5 (Herbicidal rate of 90% or more (almost completely withered)); N: redroot pigweed, herbicidal effect grade (redroot pigweed [10]; 80 g/ha): 5 (Herbicidal rate of 90% or more (almost completely withered)); O: lambsquarters, herbicidal effect grade (lambsquarters; 80 g/ha): 5 (Herbicidal rate of 90% or more (almost completely withered)); M: velvetleaf, herbicidal effect grade (velvetleaf [11]; [13]): 0 (Herbicidal rate of 5% or less (almost no effect)); herbicidal effect rating, C: oval-leafed pondweed (oval-leafed pondweed; AAH 80 g/ha): 4 (Herbicidal rate of 70% or more and less than 90%); herbicidal effect on barnyard grass (H) (barnyard grass [12]; 80 g/ha): 5 (Herbicidal rate of 90% or more (almost completely withered)); I: wild oat, herbicidal effect grade (wild oat; 80 g/ha): 5 (Herbicidal rate of 90% or more (almost completely withered))"
CCCC(=O)Oc1c(C)nn(C)c(=O)c1-c1c(-c2ccc(F)cc2OCC)sc2cc(OC)ccc12 [3-079],5 (Herbicidal rate of 90% or more (almost completely withered)),1 (Herbicidal rate of 5% or more and less than 20%),4 (Herbicidal rate of 70% or more and less than 90%),5 (Herbicidal rate of 90% or more (almost completely withered)),5 (Herbicidal rate of 90% or more (almost completely withered)),3 (Herbicidal rate of 40% or more and less than 70%),5 (Herbicidal rate of 90% or more (almost completely withered)),4 (Herbicidal rate of 70% or more and less than 90%),4 (Herbicidal rate of 70% or more and less than 90%),5 (Herbicidal rate of 90% or more (almost completely withered)),5 (Herbicidal rate of 90% or more (almost completely withered)),4 (Herbicidal rate of 70% or more and less than 90%),5 (Herbicidal rate of 90% or more (almost completely withered)),3 (Herbicidal rate of 40% or more and less than 70%),5 (Herbicidal rate of 90% or more (almost completely withered)),5 (Herbicidal rate of 90% or more (almost completely withered)),5 (Herbicidal rate of 90% or more (almost completely withered)),–
COc1ccc2c(-c3c(O)c(C)nn(C)c3=O)c(-c3ccc4c(c3)OCCO4)sc2c1 [3-082],3 (Herbicidal rate of 40% or more and less than 70%),0 (Herbicidal rate of 5% or less (almost no effect)),5 (Herbicidal rate of 90% or more (almost completely withered)),3 (Herbicidal rate of 40% or more and less than 70%),0 (Herbicidal rate of 5% or less (almost no effect)),0 (Herbicidal rate of 5% or less (almost no effect)),2 (Herbicidal rate of 20% or more and less than 40%),3 (Herbicidal rate of 40% or more and less than 70%),3 (Herbicidal rate of 40% or more and less than 70%),3 (Herbicidal rate of 40% or more and less than 70%),3 (Herbicidal rate of 40% or more and less than 70%),5 (Herbicidal rate of 90% or more (almost completely withered)),5 (Herbicidal rate of 90% or more (almost completely withered)),0 (Herbicidal rate of 5% or less (almost no effect)),3 (Herbicidal rate of 40% or more and less than 70%),5 (Herbicidal rate of 90% or more (almost completely withered)),0 (Herbicidal rate of 5% or less (almost no effect)),–
CCCC(=O)Oc1c(C)nn(C)c(=O)c1-c1c(-c2ccc3c(c2)OCCO3)sc2cc(OC)ccc12 [3-083],3 (Herbicidal rate of 40% or more and less than 70%),4 (Herbicidal rate of 70% or more and less than 90%),4 (Herbicidal rate of 70% or more and less than 90%),4 (Herbicidal rate of 70% or more and less than 90%),0 (Herbicidal rate of 5% or less (almost no effect)),0 (Herbicidal rate of 5% or less (almost no effect)),2 (Herbicidal rate of 20% or more and less than 40%),4 (Herbicidal rate of 70% or more and less than 90%),0 (Herbicidal rate of 5% or less (almost no effect)),0 (Herbicidal rate of 5% or less (almost no effect)),2 (Herbicidal rate of 20% or more and less than 40%),3 (Herbicidal rate of 40% or more and less than 70%),0 (Herbicidal rate of 5% or less (almost no effect)),0 (Herbicidal rate of 5% or less (almost no effect)),4 (Herbicidal rate of 70% or more and less than 90%),4 (Herbicidal rate of 70% or more and less than 90%),0 (Herbicidal rate of 5% or less (almost no effect)),–
